15 compounds from US7855213B2 (AstraZeneca AB, priority 2006, dated 2010) can be followed below.

Where a name gives a salt, the structure may show the parent alone.

The target of this test is T1, human β-Secretase (Homo sapiens, UniProt P56817).
T1 construct: The soluble part of the human β-Secretase (AA 1-AA 460) was cloned; made in house
T1 sequence (P56817 22-460): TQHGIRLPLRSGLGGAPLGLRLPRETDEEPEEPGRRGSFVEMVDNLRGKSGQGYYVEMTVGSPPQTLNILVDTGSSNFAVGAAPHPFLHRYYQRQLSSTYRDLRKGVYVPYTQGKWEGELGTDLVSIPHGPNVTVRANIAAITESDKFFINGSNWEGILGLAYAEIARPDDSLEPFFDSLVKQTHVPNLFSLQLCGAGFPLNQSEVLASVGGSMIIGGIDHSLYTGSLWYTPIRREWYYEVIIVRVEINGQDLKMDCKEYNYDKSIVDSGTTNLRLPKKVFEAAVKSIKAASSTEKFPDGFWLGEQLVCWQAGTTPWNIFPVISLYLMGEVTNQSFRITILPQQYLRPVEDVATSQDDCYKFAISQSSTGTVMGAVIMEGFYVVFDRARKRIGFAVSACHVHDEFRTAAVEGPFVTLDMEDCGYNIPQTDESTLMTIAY
The test can be described thus: TR-FRET assay. Type of test: biochemical.
A word on the IC50: it is the concentration needed to halve the response being measured. As for `COc1ccc(C#N)c(-c2cccc(C3(C4CC4)N=C(N)c4ccccc43)c2)c1` (stereo not drawn) [Example 91, 3′-(3-Amino-1-cyclopropyl-1H-isoindol-1-yl)-5-methoxybiphenyl-2-carbonitrile acetate], half-maximal inhibition (IC50) required 413 nM. As for `NC1=NC(c2ccncc2)(c2cccc(-c3cncnc3)c2)c2ccccc21` (stereo not drawn) [Example 45, 3-Pyridin-4-yl-3-(3-pyrimidin-5-yl-phenyl)-3H-isoindol-1-ylamine trifluoroacetate], the figure is 501 nM; as for `NC1=NC(c2ccncc2)(c2ccc(F)c(-c3cccnc3F)c2)c2ccccc21` (stereo not drawn) [Example 105, 1-[4-Fluoro-3-(2-fluoropyridin-3-yl)phenyl]-1-pyridin-4-yl-1H-isoindol-3-amine], 29 nM; as for `COc1ccc(C2(c3cccc(-c4cncnc4)c3)N=C(N)c3ccccc32)cc1` (stereo not drawn) [Example 13, 3-(4-Methoxy-phenyl)-3-(3-pyrimidin-5-yl-phenyl)-3H-isoindol-1-ylamine trifluoroacetate], 106 nM. The value for `COc1ccc(C2(c3cccc(-c4cccnc4F)c3)N=C(N)c3ccccc32)cc1` (stereo not drawn) [Example 10, 3-[3-(2-Fluoro-pyridin-3-yl)-phenyl]-3-(4-methoxy-phenyl)-3H-isoindol-1-ylamine trifluoroacetate] was 78 nM; that for `NC1=NC(c2cccc(-c3cccnc3F)c2)(c2ccc3c(c2)OCCO3)c2ccccc21` (stereo not drawn) [Example 15, 3-(2,3-Dihydrobenzo[b][1,4]dioxin-6-yl)-3-(3-(2-fluoropyridin-3-yl)phenyl)-3H-isoindol-1-amine trifluoroacetate] was 748 nM; that for `NC1=NC(c2ccc(OC(F)(F)F)cc2)(c2cccc(-c3cncnc3)c2)c2ccccc21` (stereo not drawn) [Example 57, 1-(3-Pyrimidin-5-ylphenyl)-1-[4-(trifluoromethoxy)phenyl]-1H-isoindol-3-amine 0.25 acetate] was 180 nM. As for `COc1ccc(C2(c3cccc(-c4cc(OC)cc(OS(C)(=O)=O)c4)c3)N=C(N)c3ccccc32)cc1` (stereo not drawn) [Example 14, Methanesulfonic acid 3′-[3-amino-1-(4-methoxy-phenyl)-1H-isoindol-1-yl]-5-methoxy-biphenyl-3-yl ester trifluoroacetate], the figure is 153 nM; as for `COc1ncc(C2(c3cccc(-c4cncnc4)c3)N=C(N)c3ccccc32)cn1` (stereo not drawn) [Example 108, 1-(2-Methoxypyrimidin-5-yl)-1-(3-pyrimidin-5-ylphenyl)-1H-isoindol-3-amine], 970 nM. On to `CS(=O)(=O)Oc1ccc(C2(c3cccc(-c4cccnc4F)c3)N=C(N)c3ccccc32)cc1` (stereo not drawn) [Example 37, Methanesulfonic acid 4-{3-amino-1-[3-(2-fluoro-pyridin-3-yl)-phenyl]-1H-isoindol-1-yl}-phenyl ester trifluoroacetate], for which the IC50 worked out at 569 nM.

`NC1=NC(c2ccncc2)(c2cccc(-c3cccnc3F)c2)c2cc(F)ccc21` (stereo not drawn) [Example 86, 6-Fluoro-1-[3-(2-fluoropyridin-3-yl)phenyl]-1-pyridin-4-yl-1H-isoindol-3-amine] gave an IC50 of 47 nM. `NC1=NC(c2ccncc2)(c2cccc(-c3cncnc3)c2)c2cc(Cl)ccc21` (stereo not drawn) [Example 129, 6-Chloro-1-pyridin-4-yl-1-(3-pyrimidin-5-ylphenyl)-1H-isoindol-3-amine] displayed an IC50 of 85 nM.

For the compound `NC1=NC(c2cccc(-c3cncc(F)c3)c2)(c2ccncc2F)c2ccccc21` (stereo not drawn) [Example 71, 1-(3-Fluoropyridin-4-yl)-1-[3-(5-fluoropyridin-3-yl)phenyl]-1H-isoindol-3-amine 0.5 acetate], the IC50 was 190 nM.

The compound `COc1ccc(C2(c3ccc(O)c(-c4cncnc4)c3)N=C(N)c3ccccc32)cc1` (stereo not drawn) [Example 8, 4-[3-Amino-1-(4-methoxy-phenyl)-1H-isoindol-1-yl]-2-pyrimidin-5-yl-phenol trifluoroacetate] had an IC50 of 40 nM. Compared with the last compound, the IC50 is about 4.8-fold lower.

In turn, `NC1=NC(c2ccncc2)(c2ccc(F)c(-c3cncnc3)c2)c2ccccc21` (stereo not drawn) [Example 68, 1-(4-Fluoro-3-pyrimidin-5-ylphenyl)-1-pyridin-4-yl-1H-isoindol-3-amine 0.5 acetate] came in with an IC50 of 81 nM.
